The assay concerns the target T1, CCK-A receptor (Rattus norvegicus, UniProt P30551).
T1 construct: from tissue; host or cells: pancreas membranes of Sprague-Dawley rat
T1 sequence (P30551 1-444): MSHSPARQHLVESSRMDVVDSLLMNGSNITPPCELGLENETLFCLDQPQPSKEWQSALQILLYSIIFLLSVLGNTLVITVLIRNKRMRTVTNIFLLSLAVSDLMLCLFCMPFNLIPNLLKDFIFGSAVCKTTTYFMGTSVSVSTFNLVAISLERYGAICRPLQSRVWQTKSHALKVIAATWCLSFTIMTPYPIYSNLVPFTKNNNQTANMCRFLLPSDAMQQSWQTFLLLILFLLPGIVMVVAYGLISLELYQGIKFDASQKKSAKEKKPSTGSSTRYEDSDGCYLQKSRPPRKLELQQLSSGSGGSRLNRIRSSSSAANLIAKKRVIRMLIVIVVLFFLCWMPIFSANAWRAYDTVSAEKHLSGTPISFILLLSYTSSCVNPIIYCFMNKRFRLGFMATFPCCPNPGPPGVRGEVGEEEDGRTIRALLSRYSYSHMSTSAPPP
Nature of the assay: CCK-A receptor binding assay (displacement of 3H-L-364,718 from rat pancreas membranes). Also on record: species or system Sprague-Dawley rat. As to conditions: 3H-L-364,718 0.2 nM, 37° C., 30 min, read-out: In vitro Binding Data IC50 CCK. The method, then: Washer Buffer (for use with Brandel Cell Harvester):
30 liters of 50 mM Tris, ph 7.7: Dissolve 181.7 g. Tris base in 4 1. deionized water at room temperature. Adjust pH to 7.7 with 6 N HCl and Q.S. to 30 1.
50 mM Tris-Cl, 5 mM MgCl2, 5 mM dithio-thretiol, 0.14 mg/ml bacitracin, and 2 mg/ml bovine serum albumin.
1 liter of 5X stock buffer:
30.28 g. Tris base per 800 ml D.I. water 5.09 g. MgCl2 6 H2 O, pH to 7.7 at room temperature with 6N HCl and Q.S. 1 liter, store at 4° C.
250 ml working buffer kept on ice:
50 ml of 5X stock buffer 0.1928 g. dithiothretiol (5 mM), 35 mg bacitracin (0.14 mg/ml), and 0.5 g. BSA (2mg/ml).
Unlabeled L-364,718(nonpeptide ligand):
Unlabeled L-364,718 (300 nM final concentration) is used to define nonspecific binding. A 3 mM solution is made in absolute ethanol and stored in a scintillation vial at -70° C. Aliquots are diluted 100-fold in the assay.
A Sprague-Dawley rat is sacrificed by asphyxiation with carbon dioxide and the pancreas removed. The tissue is immersed in cold wash buffer and carefully trimmed of fat, connective tissue, blood vessels, blotted and weighed. The tissue is homogenized in a Sorvall SS-34 centrifuge tube in 50 volumes of wash buffer using a Polytron at setting 7 for 15 seconds. The tissue is centrifuged (Sorvall SS-34) at 19,000 rpm for 10 min. The supernatant is poured off and the pellet resuspended in sufficient buffer to obtain a contraction of 40 mg tissue wet weight/ml. Separate aliquots (2,3ml) are placed in each of 8 centrifuge tubes and centrifuged as before. The supernatants are poured off and the pellets stored at -70° C. Stored pellets are sufficient for the assay of 160 tubes and are stable for 1-2 months.
During the assay the stored membranes are resuspended in 40 ml of assay buffer by scraping the pellet off the wall of the centrifuge tube and washing it into a teflon-glass homogenizer. Membranes are resuspended by 5 passes with the teflon pestle and the membranes stored on ice until ready for use.
Preparation of Compounds:
Compounds are prepared in DMSO (dimethyl sulfoxide) or in assay buffer. The majority of structures active as CCK antagonists generally require DMSO for complete solubility. Approximately 2-3 mg of compound is weighed directly into a 13×100 mm test tube and sufficient DMSO added to obtain a working stock solution at a concentration 100 fold greater than the highest concentration being tested in the assay. A total of 10 μl of each concentration of drug is added into a final volume of 1 ml to yield a 100 fold dilution of the, working stock solution. Control binding tubes ("totals and nonspecifics") are also treated with 10 μl DMSO.
^3 H-L-364,718 is obtained from New England Nuclear (Cat. #971) and is used as supplied. The final assay concentration of ^3 H-L-364,718 in assay buffer should be 0.2 nM in a final assay volume of 1 ml. ^3 H-L-364,718 (0.2 pmol) is added into the assay in a volume of 25 μl (8 nM working stock solution). The required dilution (usually>1000 fold) is obtained by dividing the working stock concentration into the concentration of the specific lot.
Samples are prepared in triplicate and a "total" (buffer addition) and "nonspecific" (300 nM unlabeled L-364,718) set of tubes included in each set of 24 tubes. The remaining 6 sets of triplicates are used either for screening or IC50 determinations. The order of addition is drugs-DMSO, buffer, unlabeled L-364,718, ^3 H-L-364,718, and to start the assay, membranes.
While tubes are incubating a shaking water bath at 37° C. for 30 min Brandel deposit/dispense filters are presoaked in wash buffer. Following the end of the incubation, sets of 24 tubes are rapidly washed with assay buffer as follows. Assay buffer is added to the incubation tubes to the height of the uppermost cross support in the standard Brandel test tube rack and the contents immediately aspirated. This process is repeated twice more, the filter removed, marked and the next set of 24 tubes processed. […]
(In general: In a radioligand displacement assay an active substance lowers the binding of a labelled ligand.)

One may read the IC50 as the concentration at which inhibition is half-maximal. `NC(=O)[C@H](CC(=O)O)NC(=O)C1(NC(=O)[C@H]2Cc3c([nH]c4ccccc34)CN2C(=O)Nc2ccc(Cl)c(Cl)c2)CCCC1` [Example 26]: the IC50 amounted to 100 µM.

As to `CC(C)C[C@H](NC(=O)[C@H]1Cc2c([nH]c3ccccc23)CN1C(=O)Nc1ccc(Cl)c(Cl)c1)C(=O)NCCC(=O)O` [Example 27], the IC50 is 14 µM.

On to `CC(C)C[C@H](NC(=O)[C@H]1Cc2c([nH]c3ccccc23)CN1C(=O)Nc1ccc(Cl)c(Cl)c1)C(=O)NCC(N)=O` [Example 28], for which the IC50 worked out at 9 µM.

With `Cc1cccc(NC(=O)N2Cc3[nH]c4ccccc4c3C[C@@H]2C(=O)N[C@@H](CC(C)C)C(N)=O)c1` [Example 39, N-[(3R)-2-(3-methylphenylcarbamoyl)-1,2,3,4-tetrahydro-9H-pyrido[3,4-b]indole-3-carboxy]-L-leucinamide], the IC50 was greater than 100 µM.

As to `CC(C)C[C@H](NC(=O)[C@H]1Cc2c([nH]c3ccccc23)CN1)C(=O)N[C@@H](CC(=O)OCc1ccccc1)C(N)=O` [Example 40], the IC50 amounted to 41 µM.

Take `Cc1cccc(NC(=O)N2Cc3[nH]c4ccccc4c3C[C@@H]2C(=O)N[C@@H](CC(C)C)C(=O)N[C@@H](Cc2ccccc2)C(N)=O)c1` [Example 42]: the 50% inhibitory concentration (IC50) came to 4 µM.

Take `CCOC(=O)c1ccc(NC(=O)[C@H]2Cc3c([nH]c4ccccc34)CN2C(=O)Nc2cccc(C)c2)cc1` [Example 43]: the IC50 is 37 µM.

Turning to `Cc1cccc(NC(=O)N2Cc3[nH]c4ccccc4c3C[C@@H]2C(=O)N2CCC[C@H]2C(=O)N[C@@H](CC(=O)O)C(N)=O)c1` [Example 44, N-[(3R)-2-(3-methylphenylcarbamoyl)-1,2,3,4-tetrahydro-9H-pyrido[3,4-b]indole-3-carboxyl]-L-prolyl-L-aspartic acid amide], the IC50 was determined as 98 µM.

With `Cc1cccc(NC(=O)N2Cc3[nH]c4ccccc4c3C[C@@H]2C(=O)N[C@H](CC(C)C)C(=O)N[C@H](CC(=O)O)C(N)=O)c1` [Example 45], the IC50 was 78 µM.

For `CCCCCN(CCCCC)C(=O)[C@H](CC(=O)O)NC(=O)[C@H]1Cc2c([nH]c3ccccc23)CN1C(=O)Nc1cccc(C)c1` [Example 46, N-[(3R)-2-(3-methylphenylcarbamoyl)-1,2,3,4-tetrahydro-9H-pyrido[3,4-b]indole-3-carboxyl]-L-aspartic acid dipentyl amide], the IC50 is 3.9 µM.

Take `Cc1cccc(NC(=O)N2Cc3[nH]c4ccccc4c3C[C@H]2C(=O)N[C@H](CC(C)C)C(=O)N[C@H](CC(=O)O)C(N)=O)c1` [Example 49]: the IC50 amounted to 35 µM.

As for `Cc1cccc(NC(=O)N2Cc3[nH]c4ccccc4c3C[C@@H]2C(=O)N[C@@H](CC(C)C)C(=O)N[C@@H](CC(N)=O)C(=O)O)c1` [Example 50], the IC50 was determined as 92 µM.

As to `Cc1cccc(NC(=O)N2Cc3[nH]c4ccccc4c3C[C@@H]2C(=O)N[C@@H](CC(C)C)C(=O)N[C@H](CC(=O)O)C(N)=O)c1` [Example 51, N-[(3R)-2-(3-methylphenylcarbamoyl)-1,2,3,4-tetrahydro-9H-pyrido[3,4-b]indole-3-carboxyl]-L-leucyl-D-aspartic acid amide], the IC50 was 100 µM.

`Cc1cccc(NC(=O)N2Cc3[nH]c4ccccc4c3C[C@H]2C(=O)N[C@H](CC(C)C)C(=O)N[C@@H](CC(=O)O)C(N)=O)c1` [Example 52]: the IC50 is 53 µM.

As to `Cc1cccc(NC(=O)N2Cc3[nH]c4ccccc4c3C[C@@H]2C(=O)N(C)[C@@H](CC(C)C)C(=O)N[C@@H](CC(=O)O)C(N)=O)c1` [Example 53, N-[(3R)-2-(3-methylphenylcarbamoyl)-1,2,3,4-tetrahydro-9H-pyrido[3,4-b]indole-3-carboxyl]N'-methyl-L-leucine-L-aspartic acid amide], the IC50 turned out to be 29 µM.

For the molecule `Cc1cccc(C(=O)N2Cc3[nH]c4ccccc4c3C[C@@H]2C(=O)N[C@@H](CC(C)C)C(=O)N[C@@H](CC(=O)O)C(N)=O)c1` [Example 54], the IC50 is greater than 100 µM.

Take `CC(C)C[C@H](NC(=O)[C@H]1Cc2c([nH]c3ccccc23)CN1C(=O)Nc1ccc(Cl)cc1)C(=O)N[C@@H](CC(=O)O)C(N)=O` [Example 55, N-[(3R)-2-(4-chlorophenylcarbamoyl)-1,2,3,4-tetrahydro-9H-pyrido[3,4-b]indole-3-carboxyl]-L-leucyl-L-asartic acid amide]: the concentration for half-maximal inhibition (IC50) was 48 µM.

For the molecule `Cc1cccc(NC(=O)N2Cc3[nH]c4ccccc4c3C[C@@H]2C(=O)NCC(=O)N[C@@H](CC(=O)O)C(N)=O)c1` [Example 56, N-[(3R)-2-(3-methylphenylcarbamoyl)-1,2,3,4-tetrahydro-9H-pyido[3,4-b]indole-3-carboxyl]glycyl-L-aspartic acid amide], the IC50 amounted to 34 µM.

`Cc1cccc(NC(=O)N2Cc3[nH]c4ccccc4c3C[C@@H]2C(=O)N[C@H](CC(C)C)C(=O)N[C@@H](CC(=O)O)C(N)=O)c1` [Example 57, N-[(3R)-2-(3-methylphenylcarbamoyl)-1,2,3,4-tetrahydro-9H-pyrido[3,4-b]indole-3-carboxyl]-D-leucyl-L-aspartic acid amide]: the IC50 was 100 µM.

For the molecule `Cc1cccc(NC(=O)N2Cc3[nH]c4ccccc4c3C[C@@H]2C(=O)N[C@@H](C)C(=O)N[C@@H](CC(=O)O)C(N)=O)c1` [Example 58], the IC50 worked out at 65 µM.

Regarding `CC(C)C[C@H](NC(=O)[C@H]1Cc2c([nH]c3ccccc23)CN1C(=O)Nc1cc(Cl)cc(Cl)c1)C(=O)N[C@@H](CC(=O)O)C(N)=O` [Example 59, N-[(3R)-2-(3,5-dichlorophenylcarbamoyl)-1,2,3,4-tetrahydro-9H-pyrido[3,4-b]indole-3-carboxyl]-L-leucyl-L-aspartic acid amide], the IC50 was 34 µM.

`Cc1cc(C)cc(NC(=O)N2Cc3[nH]c4ccccc4c3C[C@@H]2C(=O)N[C@@H](CC(C)C)C(=O)N[C@@H](CC(=O)O)C(N)=O)c1` [Example 60, N-[(3R)-2-(3,5-dimethylphenylcarbamoyl)-1,2,3,4-tetrahydro-9H-pyrido[3,4-b]indole-3-carboxyl]-L-leucyl-L-aspartic acid amide]: the IC50 is 65 µM.

Consider `COc1cccc(NC(=O)N2Cc3[nH]c4ccccc4c3C[C@@H]2C(=O)N[C@@H](CC(C)C)C(=O)N[C@@H](CC(=O)O)C(N)=O)c1` [Example 61], for which the IC50 was greater than 100 µM.

Take `CC(C)C[C@H](NC(=O)[C@H]1Cc2c([nH]c3ccccc23)CN1C(=O)Nc1ccc2ccccc2c1)C(=O)N[C@@H](CC(=O)O)C(N)=O` [Example 62]: the IC50 stood at 9.3 µM.

Consider `CC(C)C[C@H](NC(=O)[C@H]1Cc2c([nH]c3ccccc23)CN1C(=O)Nc1cccc(C(F)(F)F)c1)C(=O)N[C@@H](CC(=O)O)C(N)=O` [Example 63], for which the IC50 came to 86 µM.

With `Cc1cccc(NC(=O)N2Cc3[nH]c4ccccc4c3C[C@@H]2C(=O)N[C@@H](COCc2ccccc2)C(=O)N[C@@H](CC(=O)O)C(N)=O)c1` [Example 64], the IC50 came out at 29 µM.

The values above are taken from patent US5162336A, “Tetrahydro-pyrido-indoles as cholecystokinin and gastrin antagonists” (Rhone-Poulenc Rorer Pharmaceuticals Inc., priority 1990, dated 1992).
